Data on 9 molecules can be found in US20180059115A1, “METHODS FOR MONITORING POLYMORPHONUCLEAR MYELOID DERIVED SUPPRESSOR CELLS, AND COMPOSITIONS AND METHODS OF TREATMENT OF CANCER” (The Wistar Institute of Anatomy and Biology, priority 2016, published 2018).

Assay [1] relates to T lymphocytes. Briefly: Three-way allogeneic MLR suppression assay (thymidine incorporation). In kind it is cell-based, human. The note with it: 1 μM NAC, 1000 U/ml catalase, 20 μM Nor-NOHA, 1:2 PMN:T cell ratio. The text has this:
Whole blood was enriched for PMNs using MACSxpress® Neutrophil Isolation Kit (Miltenyi) following the protocol provided by the manufacturer. Cells were then labeled with anti-Lox1-PE mAb (Biolegend) and then separated using anti-PE beads and MACS column (Miltenyi). For the three-way allogenic MLR suppression assay, T lymphocytes from one healthy donor were purified using the Human CD3+ T Cell Enrichment Column Kit (R&D Systems) and used as responder cells. Dendritic cells were generated from adherent monocytes from another healthy donor in the presence of 25 ng/mL GM-CSF and 25 ng/mL IL-4 (Peprotech) for 6 days and used as stimulator cells. Responder and stimulator cells were then mixed at a 10:1 ratio followed by the addition of Lox1+ or Lox1− PMNs. T lymphocyte proliferation was assessed after 5 days of culture by thymidine incorporation.
In some experiments, 1 μM N-acetyl cysteine (NAC; Sigma) or 20 μM of Nω-hydroxy-norarginine (nor-NOHA; Cayman Chemical) was added to the culture media to block ROS or agrinase I activity, respectively. T lymphocyte proliferation was assessed after 5 days of culture by thymidine incorporation.
For orientation: Dividing cells build labelled thymidine or BrdU into new DNA.

The subject of assay [2] is PMN isolated from healthy donors. Put plainly: LOX-1 expression in PMN treated with cytokines or tumor-cell conditioned medium. The class given is cell-based, human. The note with it: healthy donor PMN, 24 hr culture, GM-CSF added; TCM 20% v/v. On the procedure:
FIGS. 11A and 11B show the mechanism regulating LOX-1 expression on PMN-MDSC, specifically the percentage of LOX-1+ PMN (FIG. 11A) and expression of LOX-1 (FIG. 11B) in PMN isolated from 4 healthy donors and treated with indicated cytokines. Range of concentrations based on reported data were tested and only one for each cytokine is shown. Conditioned medium from PCI30 tumor cells (TCM) was used at 20% v/v concentration. Mean and SD are shown.
What could induce LOX-1 up-regulation in PMN-MDSC? Based on the fact that in endothelial cells LOX-1 can be induced by pro-inflammatory cytokines^35, we tested the effect of several cytokines as well as tumor-cell conditioned medium (TCM) on LOX-1 expression in PMN isolated from healthy donors. None of the tested pro-inflammatory cytokines (IL-1β, TNFα, IL-6) or TCM induced upregulation of LOX-1 in PMN after 24 hr culture (GM-CSF was added to protect PMN viability) (FIGS. 11A and 11B).

For assay [3] the test system is unchanged. Put plainly: In vitro PMN LOX-1 induction by ER stress inducers, LOX-1 by flow cytometry. The class given is cell-based, human. To be noted: overnight with GM-CSF, THG 1 μM, DTT 1 mM. On the procedure:
(§1) PMNs from healthy donors were isolated on a Histopaque gradient. 5×10^5 cells/ml were cultured for 12 hrs with 10 ng/ml of GM-CSF in the presence of dithiothreitol (DTT) (0.5, 1, 2 mM; Sigma), tunicamycin (0.5, 1, and 2 μg/ml; Sigma-Aldrich), or thapsigargin (0.5, 1, and 2 μM; Sigma). In some instances, 20 μM of the XBP-1 inhibitor BIO9 was added 3 hours prior to culture. Cells were then stained for flow cytometry or used for functional assays as described above.
Flow cytometry data were acquired using a BD LSR II flow cytometer and analyzed using FlowJo software (Tree Star) Immunofluorescent microscopy: Following deparaffinization and rehydration, heat induced antigen retrieval was performed using Tris-EDTA buffer pH 9. Followed by blocking with 5% BSA, tissues were stained with Lox1 antibody (Abcam; Cat no ab126538) and CD15 antibody (BD biosciences; Cat no 555400) at 1:200 dilution in 5% BSA each for 1 hour at room temperature. The following secondary antibodies were used Alexa Fluor anti-rabbit A647 (1:200 dilution in 5% BSA, Life technologies) for Lox1 and anti-mouse A514 (1:400 dilution in 5% BSA, Life technologies) for CD15 staining. CD15 staining was pseudo colored red and Lox1 staining was pseudo colored green. Nucleus was stained using DAPI (1:5000 dilution in PBS, Life technologies). Images were obtained using Leica TCS SP5 Confocal microscope. […]
(In flow cytometry, cells or beads pass a laser one at a time.)

The test system of assay [4] is T lymphocytes. Briefly: CD3/CD28 induced T-cell proliferation suppression assay (3H-thymidine uptake). To be noted: healthy donor PMN treated overnight with 1 μM THG, washed. In kind it is cell-based, human. The procedure: Concurrently, T-lymphocytes were isolated from the PBMC of the same patient as LOX-1+ PMN using human CD3+ T Cell Enrichment Column Kit. PMNs were plated at different ratios with […] T lymphocytes in a 96-well plate coated with 10 μg/ml anti-CD3 (clone UCHT1; BD Biosciences) followed by the addition of 1 μg/ml of soluble anti-CD28 (clone CD28.2; BD Biosciences). T lymphocyte proliferation was assessed after 3 days of culture by thymidine incorporation.
as §1

The next assay has as its system hepatic L02 cells. The note with it: cited from earlier work.

“Also recorded” adds a separate entry of the source.

`CC(=O)N[C@@H](CS)C(=O)O` [NAC, N-acetylcysteine]: the “effect on LOX-expression in PMN / immune suppressive activity of LOX-1+ PMN-MDSC” value in the assay with T lymphocytes [1] is given as “substantially decreased LOX-expression”.
On to `N=C(NO)NCC[C@H](N)C(=O)O` [Nor-NOHA, Nω-hydroxy-norarginine], for which the “effect on LOX-expression in PMN / immune suppressive activity of LOX-1+ PMN-MDSC” value in the assay on T lymphocytes [1] is “substantially decreased LOX-expression”.
Consider IL-6: pro-inflammatory cytokine, for which the “upregulation of LOX-1 in PMN” value in assay [2] was “None”.
For the molecule `O[C@H](CS)[C@H](O)CS` (racemic) [DTT, dithiothreitol], the “LOX-1 expression in PMN” value in assay [3] is “dramatic up-regulation of LOX-1 expression”.
With IL-1β: pro-inflammatory cytokine, in assay [2], the “upregulation of LOX-1 in PMN” value was “None”.
As for TNFα, the “upregulation of LOX-1 in PMN” value in assay [2] was “None”.
Regarding catalase, the “effect on LOX-expression in PMN / immune suppressive activity of LOX-1+ PMN-MDSC” value with T lymphocytes [1] is “substantially decreased LOX-expression”.
In the case of `C/C=C(/C)C(=O)O[C@H]1C(C)=C2[C@H]([C@@H]1OC(=O)CCCCCCC)[C@@](C)(OC(C)=O)C[C@H](OC(=O)CCC)[C@@]1(O)[C@H]2OC(=O)[C@@]1(C)O` [THG, thapsigargin], the “LOX-1 expression in PMN” value in assay [3] is on record as “dramatic up-regulation of LOX-1 expression”. Besides, the “immune suppressive activity of treated PMN (T-cell proliferation)” value with T lymphocytes [4] is reported as “caused acquisition of potent immune suppressive activity; also recorded: converted PMN to PMN-MDSC”.
As for tunicamycin, the “LOX-1 expression under ER stress” value in the assay on hepatic L02 cells was “caused down-regulation of LOX-1”.
